The test system of data set [1] is HIV-1 6 type D (primary isolate). Nature of the data set: anti-HIV-1 activity, HIV-1 6 type D (primary isolate)/PBMC. In kind it is cell-based. The following applies: Human immunodeficiency virus 1, Table 4. The method, then:
(§1) The virus production was measured by quantifying the activity of the inverse transcriptase associated with viral particles released into the culture supernatant. In short, cells were infected with 100 TCID50 for 30 minutes; after adsorption of the virus, unbound particles were removed by two washings and the cells were cultivated in the presence of different concentrations of the compounds tested for 5 days before determining the viral production. The concentration inhibiting 50% of the viral multiplication (IC50) came from the computer plot of the median effect of the dose effect results (Chou et al. Elsevier Science Publishers, Cambridge U.K. (1985), 19-28).
(§2) Thirty two compounds according to the invention were studied for their anti-HIV-1 biological activity. […] This compound was then tested with other colonies and other cell lines (Table 4).

Data set [2] has as its target T1, endogenous IT of isolated virion (Human immunodeficiency virus type 1 group M subtype B, UniProt P03367).
T1 construct: endogenous in cells; host or cells: isolated HIV-1 virions
Nature of the data set: inhibition of the endogenous IT on the isolated virion. In kind it is biochemical. The following applies: for IT activity in cpm: Table 7, 10 μM. The method, then:
After having been incubated with the various inhibitors, the viral supernatants (200 μl) were deposited in the filtering part of a VectaSpin tube (WHATMAN) fitted with an ANAPORE membrane of porosity 0.02 μm. For 10 minutes they were subjected to centrifugation, the acceleration of which reached 6000 g at the filtering membrane. The viral residuums thereby obtained (10-15 μl ) were washed 3 times under the same conditions with 500 μl of RPMI then restored to their initial volumes with RPMI containing 10% of CFS.

The nature of data set [3]: cytotoxicity on MT4 cells. The data set is classed as cell-based. The following applies: human, Table 4, line HIV-1 IIIB/MT4. Here is the method:
In parallel experiments, the cytotoxicity of the molecules was measured on non-infected cells, after an incubation of 5 days in the presence of these molecules, by using a […] titration (MTT test) based on the ability of the mitochondrial dehydrogenases of the living cells to reduce 3-(4,5-dimethylthiazol-2-yl)-2,5-diphenyltetrazolium bromide in formazan (Mosmann et al. J. Immunol. Methods ([…]), 65, 55-63). The concentration cytotoxic at 50% (CC50) is the concentration at which the DO540 has been reduced to half and is calculated by using the program mentioned above.

Data set [4] is described as follows: cytotoxicity on non-infected cells (MTT test). The data set is classed as cell-based. The conditions noted are these: human. A digest of the protocol:
(§3)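 Non-infected cells incubated 5 days with compounds; viability by MTT reduction to formazan via mitochondrial dehydrogenases, read at OD540. CC50 is the concentration halving OD540.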
In general terms: Tetrazolium assays rely on reduction of a dye to a coloured formazan, in cell work by metabolically active cells.

Another data set relates to CEM-SS cells. Nature of the data set: cytotoxicity on non-infected cells (MTT test). In kind it is cell-based. The following applies: Table 3; non-infected cells, MTT, 5 days. A digest of the protocol:
as §3

Data set [5] concerns HIV-1 4200 type E (primary isolate). Nature of the data set: anti-HIV-1 activity, HIV-1 4200 type E (primary isolate)/PBMC. The data set is classed as cell-based. The conditions noted are these: Human immunodeficiency virus 1, Table 4. The method, then:
as §1, §2

The next data set has as its target T2, IT of recombinant HIV-1 (Human immunodeficiency virus type 1 group M subtype B, UniProt P03369).
T2 construct: purify the IT enzyme of the recombinant HIV-1; made in house; host or cells: yeast cells transformed with the pAB 24/IT-4 vector
Nature of the data set: inhibition of the inverse transcriptase of recombinant HIV-1. In kind it is biochemical. Here is the method:
Yeast cells transformed with the pAB 24/IT-4 vector were used to purify the IT enzyme of the recombinant HIV-1 as described by Sallafranque-Andreola et al. (1989 Eur. J. Biochem. 184, 364-374).
(§4) Incubation was carried out at 37° C. for 10 minutes in the presence of various matrix-primers.
(§5) a) Poly C-oligo dG: the reaction mixture contained a final volume of 0.05 ml, Tris-HCl 50 mM pH 8.0, MgCl2 5 mM, dithiothreitol 4 mM, 0.48 A260 /ml of poly C-oligo dG (5:1), 1.0 μCi of [^3 H]dGTP (28 Ci/mmole), dGTP 2 μM, KCl 80 mM, 1 μg of bovine serum albumin and IT 20-50 nM.
(§6) b) Poly A-oligo dT: the same conditions as in a), except that 0.48 A260 /ml of poly A-oligo dT (5:1), 0.5 μCi of [^3 H]dTTP (46 Ci/mmole), dTTP 20 μM were used.
(§7) The reactions were stopped by adding in the cold 1 ml of 10% trichloroacetic acid plus sodium pyrophosphate 0.1 M. The precipitates were filtered through nitrocellulose membranes, washed with 2% trichloroacetic acid, dried and counted in a PPO/POPOP/toluene scintillation mixture.
(§8) All the compounds were dissolved in dimethyl#sulphoxide (DMSO). The test samples were prepared in the presence of the same final concentration of DMSO. IC50 is the concentration required to inhibit the activity of the IT of the recombinant HIV-1 by 50%.

The next data set deals with IT of HIV-2 (Human immunodeficiency virus type 2 (ISOLATE ROD), UniProt P04584). Nature of the data set: inhibition of the inverse transcriptase of HIV-2. The data set is classed as biochemical. The conditions noted are these: at concentrations at which the IT of HIV-1 was well inhibited (FIG. 9). Here is the method: The system for the expression of the IT of HIV-2 in E.coli (B. Muller et al. (1991 J. Biol. Chem. 266, 14708-14713) was provided by Dr. R. Goody. The IT of the HIV-2 was purified in the same way as the IT of the HIV-1.
as §4, §5, §6, §7, §8

In data set [6] the target is inverse transcriptase of HIV-1 (HIV-1 M:B_ARV2/SF2, UniProt P03369). The experiment in a line: enzymatic kinetic analysis of IT inhibition (Lineweaver-Burk). The data set is classed as biochemical. The method, then: FIG. 12 is a double-reciprocal (Lineweaver-Burk) representation of the inhibition of the inverse transcriptase of HIV-1 by compound 7c with the poly C-oligo dG as a matrix-primer couple and dGPT as substrate.
FIG. 13 is a double-reciprocal representation, similar to […], in which the poly A-oligo dT is used as a matrix-primer couple and dTTP as substrate.
as §4, §5, §6, §7

Experimental findings from US6015820A, “4-Aryl-thio-pyridin-2(1H)-ones, medicines containing them and their uses in the treatment of illnesses linked to HIV” (priority 1995, dated 2000) are described below.

For orientation: IC50 means the concentration at which inhibition is half-maximal. A word on the CC50: it is the concentration at which the toxic effect on the cells reaches its halfway point. Low readings indicate harm at low concentration, high ones better tolerance by the cells.

Chain of IT of HIV-2 (P04584 613-1171): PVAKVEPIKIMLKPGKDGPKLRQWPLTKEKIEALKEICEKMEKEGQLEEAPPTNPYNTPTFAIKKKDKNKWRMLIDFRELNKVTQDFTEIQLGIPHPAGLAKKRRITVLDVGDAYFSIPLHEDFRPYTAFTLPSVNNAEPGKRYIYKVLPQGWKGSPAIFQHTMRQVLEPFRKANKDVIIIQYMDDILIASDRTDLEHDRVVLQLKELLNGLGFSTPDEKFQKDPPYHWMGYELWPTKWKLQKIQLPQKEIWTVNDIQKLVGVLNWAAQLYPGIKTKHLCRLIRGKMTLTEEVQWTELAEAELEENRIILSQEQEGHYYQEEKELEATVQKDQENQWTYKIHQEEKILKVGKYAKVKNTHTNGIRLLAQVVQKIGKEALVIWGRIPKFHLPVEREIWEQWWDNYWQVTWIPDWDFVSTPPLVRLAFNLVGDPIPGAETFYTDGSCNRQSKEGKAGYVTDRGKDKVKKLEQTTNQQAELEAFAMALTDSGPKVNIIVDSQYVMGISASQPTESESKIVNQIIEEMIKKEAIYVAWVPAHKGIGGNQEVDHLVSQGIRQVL

For the molecule `CCc1c(C)[nH]c(=O)c([N+](=O)[O-])c1Sc1cc(C)cc(C)c1` [Compound 7c, 5-ethyl-6-methyl-3-nitro-4-(3', 5'-dimethylphenyl)thio-pyridin-2(1H)-one], the half-inhibitory concentration (IC50) in data set [1] is less than 0.0001 µM; in [5], less than 0.0001 µM; at IT of recombinant HIV-1 it was 0.03 µM. In addition, the “IT activity in cpm” value in data set [2] (first (unheaded) value column, isolated virion control 813) is recorded as 32 cpm; in data set [2] (second (unheaded) value column, isolated virion control 809), 852 cpm. Besides, in data set [2] (isolated virions incubated 3 hours), the “penetration of envelope and capsid and blocking of IT” value is “appeared to penetrate the envelope and the viral capsid to fix itself onto the IT and to block its activity”. In addition, the half-maximal cytotoxic concentration (CC50) at 120 h in data set [3] is more than 10 µM; in data set [4] (cem-ss cells, Table 4, line HIV-1 (LA1)/CEMSS), more than 10 µM; in data set [4] (Table 2, non-infected CEM-SS cells, MTT, 5 days) it was more than 10 µM. The half-maximal cytotoxic concentration (CC50) in the data set with CEM-SS cells is more than 10 µM. On IT of recombinant HIV-1 (FIG. 9), the “effect on activity of the IT of HIV-1 in HIV-1/HIV-2 comparison” value was “well inhibited”. Moreover, the “IT inhibition according to matrix-primer couple” value at IT of recombinant HIV-1 (poly C-oligo dG compared with poly A-oligo dT (FIG. 9)) was “Better inhibition was obtained in the presence of poly C-oligo dG compared with poly A-oligo dT”. Moreover, the “effect on activity of the IT of HIV-2” value at IT of HIV-2 is “not affected”. Also, the type of inhibition result is listed as “non-competitive” in data set [6] (as regards dGTP substrate, poly C-oligo dG matrix-primer (FIG. 12)) and “competitive” in [6] (poly A-oligo dT matrix-primer, dTTP substrate (FIG. 13)).
